Laboratory results from patent US4623626A (priority 1982, dated 1986).
Entries after “also recorded” stand apart in the source; their conditions may differ. Read-outs that look alike come from different tables or passages of the source. Values belong to the molecule of their own block, whether it stands above or below them.

Assays:
[1] = tested on: glutamic acid oxidase (known enzyme); settings: cited from earlier work
[2] = target: T1, L-glutamic acid oxidase (enzyme of the present invention) (Streptomyces sp, UniProt Q8L3C7); assay: Effects of additives on the enzyme activity (inhibition, activation); assay type: biochemical, Streptomyces sp. X-119-6; settings: additive 1 mM
T1 construct: isolated and purified the enzyme of the present invention as a single enzyme protein from such a cultured product of the microorganism; made in house; host or cells: natural producer, Streptomyces sp; (strain X-119-6 per the earlier reading); enzyme purified from the cultured product, not recombinant
T1 sequence (Q8L3C7 15-390 limits assumed): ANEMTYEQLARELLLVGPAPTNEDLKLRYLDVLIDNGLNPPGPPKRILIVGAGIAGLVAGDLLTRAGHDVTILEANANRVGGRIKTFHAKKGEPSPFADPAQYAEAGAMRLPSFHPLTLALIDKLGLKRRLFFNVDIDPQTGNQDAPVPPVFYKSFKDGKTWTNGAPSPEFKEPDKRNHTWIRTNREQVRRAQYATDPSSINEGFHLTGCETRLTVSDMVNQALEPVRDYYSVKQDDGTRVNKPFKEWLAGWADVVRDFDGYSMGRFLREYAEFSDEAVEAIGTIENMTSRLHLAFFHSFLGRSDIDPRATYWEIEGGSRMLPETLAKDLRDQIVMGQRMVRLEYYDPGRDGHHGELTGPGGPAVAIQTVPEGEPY
T1 sequence (Q8L3C7 391-520 limits assumed): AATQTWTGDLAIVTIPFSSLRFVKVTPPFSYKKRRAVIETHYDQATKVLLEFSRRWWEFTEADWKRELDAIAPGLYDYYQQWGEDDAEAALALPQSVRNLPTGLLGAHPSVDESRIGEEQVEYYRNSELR
T1 sequence (Q8L3C7 521-701 limits assumed): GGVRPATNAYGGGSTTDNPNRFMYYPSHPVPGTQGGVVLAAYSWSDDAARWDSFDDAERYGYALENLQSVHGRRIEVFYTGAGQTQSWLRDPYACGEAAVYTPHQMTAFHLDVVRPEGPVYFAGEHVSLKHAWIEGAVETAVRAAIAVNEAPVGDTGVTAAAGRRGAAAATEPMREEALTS
Procedure: For examination of the effects of various additives on the enzyme activity of the present invention, enzymatic reaction was carried out in a reaction mixture (pH 7.4) containing each of the substances shown in Table 2 at a concentration of 1 mM.

[3] = target: T1, L-glutamic acid oxidase (enzyme of the present invention); assay: Substrate specificity of the enzyme of the present invention, oxygen electrode method; assay type: biochemical, Streptomyces sp. X-119-6
Procedure: The concentration of each substrate was 10 mM, and the reactions were carried out at pH 7.4 (0.1 M potassium phosphate buffer) and pH 6.0 (0.1 M acetate buffer).

[4] = tested on: glutamic acid oxidase (known enzyme); settings: cited from earlier work; for activity of the known enzyme for the substrate: relative to L-glutamic acid; for relative activity of the known enzyme: velocity for L-glutamic acid given as 100
[5] = target: T1, L-glutamic acid oxidase (enzyme of the present invention); assay: km values of the enzyme of the present invention; assay type: biochemical, Streptomyces sp. X-119-6; settings: pH 7.4
Procedure: That is, 1 ml of 0.1 M potassium phosphate buffer (pH 7.4) containing 10 mM sodium L-glutamate was charged into an oxygen electrode cell and 10 μl of an enzyme solution was added thereto to measure the oxygen consumption rate. One unit of enzyme was determined as the amount of enzyme which consumes 1μ mol of oxygen per minute at 30° C. in the absence of catalase (unit: hereinafter abbreviated as "U").

[6] = pH of 6.0 or less or pH 10.0 or more

SMILES: [Cl][Cu][Cl] [CuCl2, cupric chloride]
inhibition of the known enzyme [1]: completely inhibited | inhibition of the activity of the enzyme of the present invention ([2]; pH 7.4): not inhibited at all

activity of the enzyme of the present invention for the substrate [3]: substantially no activity
SMILES: N[C@@H](Cc1c[nH]cn1)C(=O)O [L-Histidine]
activity of the known enzyme for the substrate [4]: 6.8% | relative activity of the known enzyme [4]: 6.8

SMILES: [Cu+2] [copper ions]
inhibition of the known enzyme [1]: Substantially completely inhibited; also recorded: markedly inhibited

SMILES: [Ca+2].[Cl-].[Cl-] [CaCl2]
Relative activity ([2]; reaction mixture pH 7.4, no addition = 100): 100.0

activity of the enzyme of the present invention for the substrate [3]: substantially no activity
SMILES: N[C@H](CCC(=O)O)C(=O)O [D-Glutamic acid]

SMILES: N[C@@H](CC(=O)O)C(=O)O [L-Aspartic acid]
Km [5]: 29 mM | activity of the enzyme of the present invention for the substrate ([3]; pH 6.0): substantially no activity | action of the enzyme of the present invention on the substrate [6]: substantially no action | activity of the known enzyme for the substrate [4]: ≤ 0.1%

SMILES: NC(=O)CC[C@H](N)C(=O)O [L-Glutamine]
activity of the enzyme of the present invention for the substrate [3]: substantially no activity | activity of the known enzyme for the substrate [4]: 8.4% | relative activity of the known enzyme [4]: 8.4
